Each compound was assayed against T1, mTOR (Homo sapiens, UniProt P42345) (assay: mTOR Kinase Assay (Echo)). Details: not given.
T1 construct: FLAG; made in house
Type: biochemical

T1 sequence (P42345 1362-2549): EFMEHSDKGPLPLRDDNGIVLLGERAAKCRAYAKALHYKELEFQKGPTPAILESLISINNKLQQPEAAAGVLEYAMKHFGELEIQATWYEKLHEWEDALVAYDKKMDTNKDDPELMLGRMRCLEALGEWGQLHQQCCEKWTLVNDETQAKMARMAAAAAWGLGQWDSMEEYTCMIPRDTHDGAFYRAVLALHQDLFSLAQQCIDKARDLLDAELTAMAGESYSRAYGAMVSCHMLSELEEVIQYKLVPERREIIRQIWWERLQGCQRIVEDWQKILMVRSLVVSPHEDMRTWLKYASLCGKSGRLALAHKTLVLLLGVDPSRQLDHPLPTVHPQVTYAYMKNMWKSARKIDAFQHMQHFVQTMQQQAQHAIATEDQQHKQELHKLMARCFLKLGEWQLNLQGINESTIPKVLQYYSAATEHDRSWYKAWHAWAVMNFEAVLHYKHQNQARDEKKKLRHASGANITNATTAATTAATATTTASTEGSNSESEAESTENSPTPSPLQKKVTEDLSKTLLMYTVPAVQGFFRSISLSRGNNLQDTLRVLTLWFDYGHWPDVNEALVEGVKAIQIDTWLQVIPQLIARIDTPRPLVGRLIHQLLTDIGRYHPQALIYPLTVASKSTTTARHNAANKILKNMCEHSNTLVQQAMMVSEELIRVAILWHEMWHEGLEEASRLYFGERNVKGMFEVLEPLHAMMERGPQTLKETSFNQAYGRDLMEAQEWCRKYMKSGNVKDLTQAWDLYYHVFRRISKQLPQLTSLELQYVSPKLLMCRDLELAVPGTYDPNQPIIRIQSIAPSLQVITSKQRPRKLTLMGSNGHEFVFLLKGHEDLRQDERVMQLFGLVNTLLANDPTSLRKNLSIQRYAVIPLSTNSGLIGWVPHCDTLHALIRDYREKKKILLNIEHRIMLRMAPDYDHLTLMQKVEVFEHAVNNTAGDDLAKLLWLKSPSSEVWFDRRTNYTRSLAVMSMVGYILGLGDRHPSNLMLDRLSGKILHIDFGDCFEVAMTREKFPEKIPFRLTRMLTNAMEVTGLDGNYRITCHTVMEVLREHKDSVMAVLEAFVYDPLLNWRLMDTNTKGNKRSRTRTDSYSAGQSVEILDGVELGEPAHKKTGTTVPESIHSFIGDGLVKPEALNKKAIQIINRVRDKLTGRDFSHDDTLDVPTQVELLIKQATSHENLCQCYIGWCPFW

IC50 [nM]	SMILES
259	C[C@H]1COCCN1c1cc(C2(S(=O)(=O)c3ccccn3)CC2)nc(-c2ccc(NC(=O)NC3(CO)CC3)cc2)n1 [Example 36cv, 3-[1-(hydroxymethyl)cyclopropyl]-1-[4-[4-[(3S)-3-methylmorpholin-4-yl]-6-(1-pyridin-2-ylsulfonylcyclopropyl)pyrimidin-2-yl]phenyl]urea]

Each compound was assayed against T1, mTOR (assay: In Vitro mTOR Kinase Assay (Echo), Test (a)(ii)). Details: read-out: mTOR Kinase Assay (Echo).
Type: biochemical
Method in brief: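 FLAG-tagged human mTOR truncation (residues 1362-2549) expressed in HEK293 cells and FLAG-purified. Compounds dispensed acoustically, reaction 2 h at room temperature, stopped with EDTA. Phosphorylation of biotinylated peptide detected by AlphaScreen with anti-p70 S6K (T389) antibody overnight; IC50 reported.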

IC50 [nM]	SMILES
2.93	C[C@H]1COCCN1c1cc(C2(S(=O)(=O)c3ccncc3)CC2)nc(-c2ccc(NC(=O)Nc3ccccn3)cc2)n1 [Example 6a, 1-[4-[4-[(3S)-3-methylmorpholin-4-yl]-6-(1-pyridin-4-ylsulfonylcyclopropyl)pyrimidin-2-yl]phenyl]-3-pyridin-2-yl-urea]
1.8	C[C@H]1COCCN1c1cc(C2(S(=O)(=O)C3CCCC3)CC2)nc(-c2ccc(NC(=O)NC3CC3)cc2)n1 [Example 9, 1-[4-[4-(1-Cyclopentylsulfonylcyclopropyl)-6-[(3S)-3-methylmorpholin-4-yl]pyrimidin-2-yl]phenyl]-3-cyclopropyl-urea]
0.802	CNC(=O)Nc1ccc(-c2nc(N3CCOC[C@@H]3C)cc(C3(S(C)(=O)=O)CCC3)n2)cc1 [Example 5, 3-Methyl-1-[4-[4-[(3S)-3-methylmorpholin-4-yl]-6-(1-methylsulfonylcyclobutyl)pyrimidin-2-yl]phenyl]urea]
1	C[C@H]1COCCN1c1cc(C2(S(=O)(=O)c3ccncc3)CC2)nc(-c2ccc(NC(=O)NC3CCC3)cc2)n1 [Example 6, 3-Cyclobutyl-1-[4-[4-[(3S)-3-methylmorpholin-4-yl]-6-(1-pyridin-4-ylsulfonylcyclopropyl)pyrimidin-2-yl]phenyl]urea]
3.21	CC(C)NC(=O)Nc1ccc(-c2nc(N3CCOC[C@@H]3C)cc(C3(S(=O)(=O)c4ccncc4)CC3)n2)cc1 [Example 6c, 1-[4-[4-[(3S)-3-methylmorpholin-4-yl]-6-(1-pyridin-4-ylsulfonylcyclopropyl)pyrimidin-2-yl]phenyl]-3-propan-2-yl-urea]
4.59	CC(C)(CO)NC(=O)Nc1ccc(-c2nc(N3CCOCC3)cc(C3(S(C)(=O)=O)CC3)n2)cc1 [Example 12e, 3-(1-hydroxy-2-methylpropan-2-yl)-1-[4-[4-(1-methylsulfonylcyclopropyl)-6-morpholin-4-ylpyrimidin-2-yl]phenyl]urea]

Same assay, conditions: table of enzyme assay Test (a)(ii); read-out: Test (a)(ii) IC50

IC50 [nM]	SMILES
4.15	C[C@H]1COCCN1c1cc(C2(S(=O)(=O)c3nccs3)CC2)nc(-c2ccc(NC(=O)NCCCO)cc2)n1 [Example 66a, 3-(3-hydroxypropyl)-1-[4-[4-[(3S)-3-methylmorpholin-4-yl]-6-[1-(1,3-thiazol-2-ylsulfonyl)cyclopropyl]pyrimidin-2-yl]phenyl]urea]
3.39	C[C@H]1COCCN1c1cc(C2(S(=O)(=O)c3ccccn3)CC2)nc(-c2ccc(NC(=O)NCC(F)F)cc2)n1 [Example 64af, 3-(2,2-difluoroethyl)-1-[4-[4-[(3S)-3-methylmorpholin-4-yl]-6-(1-pyridin-2-ylsulfonylcyclopropyl)pyrimidin-2-yl]phenyl]urea]
3.56	C[C@H]1COC[C@H](C)N1c1cc(C2(S(C)(=O)=O)CC2)nc(-c2ccc(NC(=O)NCCO)cc2)n1 [Example 91d, 1-[4-[4-[(3S,5S)-3,5-dimethylmorpholin-4-yl]-6-(1-methylsulfonylcyclopropyl)pyrimidin-2-yl]phenyl]-3-(2-hydroxyethyl)urea]
8.82	Cc1ccccc1S(=O)(=O)C1(c2cc(N3CCOC[C@@H]3C)nc(-c3ccc(NC(=O)NCC(F)F)cc3)n2)CC1 [Example 54d, 3-(2,2-difluoroethyl)-1-[4-[4-[(3S)-3-methylmorpholin-4-yl]-6-[1-(2-methylphenyl)sulfonylcyclo-propyl]pyrimidin-2-yl]phenyl]urea]
1.6	C[C@H]1COCCN1c1cc(C2(S(=O)(=O)CCO)CC2)nc(-c2ccc(NC(=O)Nc3ncns3)cc2)n1 [Example 16c, 1-[4-[4-[1-(2-hydroxyethylsulfonyl)cyclopropyl]-6-[(3S)-3-methylmorpholin-4-yl]pyrimidin-2-yl]phenyl]-3-(1,2,4-thiadiazol-5-yl)urea]
1.98	CNC(=O)Nc1ccc(-c2nc(N3[C@@H](C)COC[C@@H]3C)cc(C3(S(C)(=O)=O)CC3)n2)cc1 [Example 91a, 1-[4-[4-[(3S,5S)-3,5-dimethylmorpholin-4-yl]-6-(1-methylsulfonylcyclopropyl)pyrimidin-2-yl]phenyl]-3-methylurea]
31.7	CCNC(=S)Nc1ccc(-c2nc(N3CCOC[C@@H]3C)cc(C3(S(=O)(=O)CCCO)CCC3)n2)cc1 [Example 99e, 1-ethyl-3-[4-[4-[1-(3-hydroxypropylsulfonyl)cyclobutyl]-6-[(3S)-3-methylmorpholin-4-yl]pyrimidin-2-yl]phenyl]thiourea]
36.3	C[C@H]1COCCN1c1cc(C2(S(C)(=O)=O)CCCC2)nc(-c2ccc(NC(=O)NC3CC3)nc2)n1 [Example 14n, 3-cyclopropyl-1-[5-[4-[(3S)-3-methylmorpholin-4-yl]-6-(1-methylsulfonylcyclopentyl)pyri-midin-2-yl]pyridin-2-yl]urea]
142	C[C@H]1COCCN1c1cc(C2(S(=O)(=O)CCCO)CC2)nc(-c2ccc(NC(=O)NC3(CO)CC3)cc2)n1 [Example 36a, 3-[1-(hydroxymethyl)cyclopro-pyl]-1-[4-[4-[1-(3-hydroxypropylsulfonyl)cyclopropyl]-6-[(3S)-3-methylmorpholin-4-yl]pyrimidin-2-yl]phenyl]urea]
0.93	CCCNC(=O)Nc1ccc(-c2nc(N3CCOC[C@@H]3C)cc(C3(S(=O)(=O)c4ccccn4)CC3)n2)cc1 [Example 28h, 3-[4-[4-[(3S)-3-methylmorpholin-4-yl]-6-(1-pyridin-2-ylsulfonylcyclopropyl)pyrimidin-2-yl]phenyl]-1-propylurea]
18.9	Cc1nn(C)cc1S(=O)(=O)C1(c2cc(N3CCOC[C@@H]3C)nc(-c3ccc(NC(=O)NCCF)cc3)n2)CC1 [Example 55c, 1-[4-[4-[1-(1,3-dimethylpyrazol-4-yl)sulfonylcyclopropyl]-6-[(3S)-3-methylmorpholin-4-yl]pyrimidin-2-yl]phenyl]-3-(2-fluoroethyl)urea]
13.7	C[C@H]1COCCN1c1cc(C2(S(=O)(=O)c3ccc(F)cc3)CC2)nc(-c2ccc(NC(=O)NCCO)nc2)n1 [Example 14l, 1-[5-[4-[1-(4-fluorophenyl)sulfonylcyclopro-pyl]-6-[(3S)-3-methylmorpholin-4-yl]pyrimidin-2-yl]pyridin-2-yl]-3-(2-hydroxyethyl)urea]
20.4	CCNC(=O)Nc1ccc(-c2nc(N3CCOC[C@@H]3C)cc(C3(S(=O)(=O)c4cn(C)nc4C)CC3)n2)cc1 [Example 55e, 3-[4-[4-[1-(1,3-dimethylpyrazol-4-yl)sulfonylcyclopropyl]-6-[(3S)-3-methylmorpholin-4-yl]pyrimidin-2-yl]phenyl]-1-ethylurea]
3.17	CNC(=O)Nc1ccc(-c2nc(N3CCOC[C@@H]3C)cc(C3(S(=O)(=O)C4CC4)CCC3)n2)cc1 [Example 36d, 1-[4-[4-(1-cyclopropylsulfonylcyclobutyl)-6-[(3S)-3-methylmorpholin-4-yl]pyrimidin-2-yl]phenyl]-3-methylurea]
2.3	C[C@H]1COC[C@H](C)N1c1cc(C2(S(=O)(=O)c3ccccc3)CC2)nc(-c2ccc(NC(=O)NCCO)cc2)n1 [Example 93b, 1-[4-[4-[1-(benzenesulfonyl)cyclopropyl]-6-[(3S,5S)-3,5-dimethylmorpholin-4-yl]pyrimidin-2-yl]phenyl]-3-(2-hydroxyethyl)urea]
5.77	C[C@H]1COCCN1c1cc(C2(S(=O)(=O)CCO)CC2)nc(-c2ccc(NC(=O)NCCO)cc2)n1 [Example 16b, 3-(2-hydroxyethyl)-1-[4-[4-[1-(2-hydroxyethylsulfonyl)cyclopropyl]-6-[(3S)-3-methylmorpholin-4-yl]pyrimidin-2-yl]phenyl]urea]
2.47	C[C@H]1COCCN1c1cc(C2(S(=O)(=O)c3ccccn3)CCC2)nc(-c2ccc(NC(=O)NCCO)cc2)n1 [Example 36ah, 3-(2-hydroxyethyl)-1-[4-[4-[(3S)-3-methylmorpholin-4-yl]-6-(1-pyridin-2-ylsulfonylcyclobutyl)pyrimidin-2-yl]phenyl]urea]
194	CS(=O)(=O)C1(c2cc(N3CCOCC3)nc(-c3ccc(NC(=O)NCc4ncc[nH]4)cc3)n2)CC1 [Example 36t, 3-(1H-imidazol-2-ylmethyl)-1-[4-[4-(1-methylsulfonylcyclopropyl)-6-morpholin-4-ylpyrimidin-2-yl]phenyl]urea]
420	C[C@H]1COCCN1c1cc(C2(S(=O)(=O)CCCO)CCOCC2)nc(-c2ccc(NC(=O)NCCC#N)cc2)n1 [Example 36ce, 3-(2-cyanoethyl)-1-[4-[4-[4-(3-hydroxypropylsulfonyl)oxan-4-yl]-6-[(3S)-3-methylmorpholin-4-yl]pyrimidin-2-yl]phenyl]urea]
1.65	CCNC(=O)Nc1ccc(-c2nc(N3CCOCC3)cc(C3(S(=O)(=O)c4ccccn4)CC3)n2)cc1 [Example 56b, 3-ethyl-1-[4-[4-morpholin-4-yl-6-(1-pyridin-2-ylsulfonylcyclopropyl)pyrimidin-2-yl]phenyl]urea]
9.55	CC(C)CNC(=O)Nc1ccc(-c2nc(N3CCOC[C@@H]3C)cc(C3(S(=O)(=O)CCCO)CC3)n2)cc1 [Example 31d, 1-[4-[4-[1-(3-hydroxypropylsulfonyl)cyclopropyl]-6-[(3S)-3-methylmorpholin-4-yl]pyrimidin-2-yl]phenyl]-3-(2-methylpropyl)urea]
13.5	C[C@H]1COCCN1c1cc(C2(S(=O)(=O)C3CCOCC3)CC2)nc(-c2ccc(NC(=O)Nc3cnn(C)c3)cc2)n1 [Example 94e, 1-[4-[4-[(3S)-3-methylmorpholin-4-yl]-6-[1-(oxan-4-ylsulfonyl)cyclopropyl]pyrimidin-2-yl]phenyl]-3-(1-methylpyrazol-4-yl)urea]

Source: patent publication US20090018134A1, “Compounds - 945” (AstraZeneca AB, priority 2007, published 2009)
